Earlier results, collected in patent publication US20220241364A1, “Composition for Lowering Blood Glucose Level, Reducing Blood Hemoglobin A1c Content, or Increasing Blood HDL-Cholesterol Content” (House Wellness Foods Corporation, priority 2019, published 2022).

Details: in vivo

For `CC(C)=CC(=O)C[C@H](C)c1ccc(C)cc1` [ar turmerone], the “elevation of blood sugar level” value is listed as “effect of inhibiting the elevation”.
